Legend:
[1] = test system: TBK1 signaling downstream from STING; test: Western blot of activated and total TBK1 in DCs co-cultured with pretreated RM9 cells; assay type: cell-based, mouse
Experimental: FIG. 8A: RM9 prostate cancer cells were treated with a combination of 5 μM 6tdG and 1 μM CpG, 1 μM CpG(6tdG)6-p or PBS overnight, washed and incubated for the additional 3 days in fresh media. The dying cancer cells were then harvested and co-cultured for 18 h with freshly isolated, mouse primary splenic DC at a ratio of 1:10. The percentages of activated DCs (CD11c+MHC II+/CD80+ or CD86+) were analyzed by flow cytometry. FIG. 8B: Bone-marrow derived dendritic cells (BMDCs) were co-cultured with cancer cells in the presence of CpG alone, 6tdG alone, combination of CpG and 6tdG, or CpG(6tdG)6-p for 3 days. The expression of IFN-β mRNA was analyzed by real-time qPCR. Shown are results from three independent experiments; means±SEM (n=3); ****P<0.0001; *P<0.05 compared to the untreated group. FIG. 8C: TBK1 signaling downstream from STING is activated in primary mouse DCs co-cultured with RM9 cells pretreated using 6tdG alone, in combination with CpG or by CpG-(6tdG)6-p oligomer. The protein content of dendritic cells was analyzed using western blot to evaluate levels of activated and total TBK1. The protein levels were normalized to beta-actin and quantified densitometrically.

[2] = test system: resting human lymphocytes; test: Apoptosis/viability of resting human PBMCs (Annexin V/7AAD flow cytometry); assay type: cell-based; settings: PBMCs from 3 healthy donors, treated 2 days
Experimental: (§1) PMBCs from 3 healthy donors were seeded at a density of 10^7/mL and treated with CpG alone, 6tdG alone, combination of CpG and 6tdG, CpG(6tdG)6-p, CpG(6tdG)5G for 2 days. Cell apoptosis was measured using flow cytometry after staining for Annexin V and 7AAD. Representative results obtained from 3 independent experiments; means±SEM (n=3). (FIG. 4B) Human T cells isolated from 3 healthy donor PBMCs using negative selection were activated with CD3/CD28 beads in the presence of 20 ng/mL human IL-2 to induce proliferation. After activation, T cells were incubated in the presence of CpG alone, 6tdG alone, combination of CpG and 6tdG, CpG(6tdG)6-p or CpG(6tdG)5G for the indicated times before subject to viability analysis in flow cytometry. (FIG. 4C) Activated and proliferating T cells, but not naïve/resting T cells, have high levels of telomerase activity. The telomerase activity was assayed using TRAPeze kit (EMD Millipore), a telomerase repeated amplification protocol, and PCR products were qualitatively analyzed in a PAGE gel.

[3] = test system: telomerase-negative normal cells; settings: cited from earlier work
[4] = test system: activated T cells; test: Viability of CD3/CD28-activated human T cells (flow cytometry); assay type: cell-based; settings: human T cells activated with CD3/CD28 beads and IL-2
Experimental: as §1

## Nc1nc2c(ncn2[C@H]2C[C@H](O)[C@@H](CO)O2)c(=S)[nH]1 [6tdG, 6-thio-2′-deoxyguanosine]
[1]
  TBK1 signaling in primary mouse DCs: activated
[2]
  viability of resting human lymphocytes: Neither 6tdG nor CpG-6tdG oligomers affect viability
[3]
  cytotoxic effects on telomerase-negative normal cells: minimal cytotoxic effects
[4]
  cytotoxicity to activated T cells: cytotoxic to activated T cells

Source: patent US20250376689A1, “OLIGONUCLEOTIDES HAVING 6-THIO-2'-DEOXYGUANOSINE RESIDUES AND USES THEREOF” (City of Hope, priority 2021, published 2025)
